Tested on: NCI-H226
Assay: NCI growth inhibition and cytotoxicity screen, Lung Cancer panel
Settings: Homo sapiens, NCI-H226, read-out: LC50

SMILES	CC50 [µM]
COc1cc(/C(C#N)=C/c2cnc3ccccc3c2)cc(OC)c1OC [PNR-5-10, (Z)-3-(quinolin-3-yl)-2-(3,4,5-trimethoxyphenyl)acrylonitrile]	> 100

Tested on: NCI-H23
Assay: as above
Settings: Homo sapiens, NCI-H23

SMILES	GI50 [µM]
COc1cc(/C(C#N)=C/c2cnc3ccccc3c2)cc(OC)c1OC [PNR-5-10, (Z)-3-(quinolin-3-yl)-2-(3,4,5-trimethoxyphenyl)acrylonitrile]	2.93

Same assay, conditions: Homo sapiens, NCI-H23, read-out: LC50

SMILES	CC50 [µM]
COc1cc(/C(C#N)=C/c2cnc3ccccc3c2)cc(OC)c1OC [PNR-5-10, (Z)-3-(quinolin-3-yl)-2-(3,4,5-trimethoxyphenyl)acrylonitrile]	> 100

Tested on: COLO 205
Assay: NCI growth inhibition and cytotoxicity screen, Colon Cancer panel
Settings: Homo sapiens, COLO 205, read-out: LC50

SMILES	CC50 [µM]
COc1cc(/C(C#N)=C/c2cnc3ccccc3c2)cc(OC)c1OC [PNR-5-10, (Z)-3-(quinolin-3-yl)-2-(3,4,5-trimethoxyphenyl)acrylonitrile]	9.44

Tested on: HCT-116
Assay: as above
Settings: Homo sapiens, HCT-116

SMILES	GI50 [µM]
COc1cc(/C(C#N)=C/c2cnc3ccccc3c2)cc(OC)c1OC [PNR-5-10, (Z)-3-(quinolin-3-yl)-2-(3,4,5-trimethoxyphenyl)acrylonitrile]	0.464

Same assay, conditions: Homo sapiens, HCT-116, read-out: LC50

SMILES	CC50 [µM]
COc1cc(/C(C#N)=C/c2cnc3ccccc3c2)cc(OC)c1OC [PNR-5-10, (Z)-3-(quinolin-3-yl)-2-(3,4,5-trimethoxyphenyl)acrylonitrile]	> 100

Tested on: HCT-15
Assay: as above
Settings: Homo sapiens, HCT-15

SMILES	GI50 [µM]
COc1cc(/C(C#N)=C/c2cnc3ccccc3c2)cc(OC)c1OC [PNR-5-10, (Z)-3-(quinolin-3-yl)-2-(3,4,5-trimethoxyphenyl)acrylonitrile]	1.08

Same assay, conditions: Homo sapiens, HCT-15, read-out: LC50

SMILES	CC50 [µM]
COc1cc(/C(C#N)=C/c2cnc3ccccc3c2)cc(OC)c1OC [PNR-5-10, (Z)-3-(quinolin-3-yl)-2-(3,4,5-trimethoxyphenyl)acrylonitrile]	> 100

Tested on: HT29
Assay: as above
Settings: Homo sapiens, HT-29

SMILES	GI50 [µM]
COc1cc(/C(C#N)=C/c2cnc3ccccc3c2)cc(OC)c1OC [PNR-5-10, (Z)-3-(quinolin-3-yl)-2-(3,4,5-trimethoxyphenyl)acrylonitrile]	0.421

Same assay, conditions: Homo sapiens, HT-29, read-out: LC50

SMILES	CC50 [µM]
COc1cc(/C(C#N)=C/c2cnc3ccccc3c2)cc(OC)c1OC [PNR-5-10, (Z)-3-(quinolin-3-yl)-2-(3,4,5-trimethoxyphenyl)acrylonitrile]	> 100

Tested on: KM12
Assay: as above
Settings: Homo sapiens, KM12

SMILES	GI50 [µM]
COc1cc(/C(C#N)=C/c2cnc3ccccc3c2)cc(OC)c1OC [PNR-5-10, (Z)-3-(quinolin-3-yl)-2-(3,4,5-trimethoxyphenyl)acrylonitrile]	0.436

Same assay, conditions: Homo sapiens, KM12, read-out: LC50

SMILES	CC50 [µM]
COc1cc(/C(C#N)=C/c2cnc3ccccc3c2)cc(OC)c1OC [PNR-5-10, (Z)-3-(quinolin-3-yl)-2-(3,4,5-trimethoxyphenyl)acrylonitrile]	> 100

Tested on: CAKI-1
Assay: NCI growth inhibition and cytotoxicity screen, Renal Cancer panel
Settings: Homo sapiens, CAKI-1

SMILES	GI50 [µM]
COc1cc(/C(C#N)=C/c2cnc3ccccc3c2)cc(OC)c1OC [PNR-5-10, (Z)-3-(quinolin-3-yl)-2-(3,4,5-trimethoxyphenyl)acrylonitrile]	0.346

Same assay, conditions: Homo sapiens, CAKI-1, read-out: LC50

SMILES	CC50 [µM]
COc1cc(/C(C#N)=C/c2cnc3ccccc3c2)cc(OC)c1OC [PNR-5-10, (Z)-3-(quinolin-3-yl)-2-(3,4,5-trimethoxyphenyl)acrylonitrile]	> 100

Tested on: RXF 393
Assay: as above
Settings: Homo sapiens, RXF 393

SMILES	GI50 [µM]
COc1cc(/C(C#N)=C/c2cnc3ccccc3c2)cc(OC)c1OC [PNR-5-10, (Z)-3-(quinolin-3-yl)-2-(3,4,5-trimethoxyphenyl)acrylonitrile]	0.579

Same assay, conditions: Homo sapiens, RXF 393, read-out: LC50

SMILES	CC50 [µM]
COc1cc(/C(C#N)=C/c2cnc3ccccc3c2)cc(OC)c1OC [PNR-5-10, (Z)-3-(quinolin-3-yl)-2-(3,4,5-trimethoxyphenyl)acrylonitrile]	> 100

Tested on: UO-31
Assay: as above
Settings: Homo sapiens, UO-31

SMILES	GI50 [µM]
COc1cc(/C(C#N)=C/c2cnc3ccccc3c2)cc(OC)c1OC [PNR-5-10, (Z)-3-(quinolin-3-yl)-2-(3,4,5-trimethoxyphenyl)acrylonitrile]	0.58

Same assay, conditions: Homo sapiens, UO-31, read-out: LC50

SMILES	CC50 [µM]
COc1cc(/C(C#N)=C/c2cnc3ccccc3c2)cc(OC)c1OC [PNR-5-10, (Z)-3-(quinolin-3-yl)-2-(3,4,5-trimethoxyphenyl)acrylonitrile]	> 100

Tested on: MCF7
Assay: NCI growth inhibition and cytotoxicity screen, Breast Cancer panel
Settings: Homo sapiens, MCF7

SMILES	GI50 [µM]
COc1cc(/C(C#N)=C/c2cnc3ccccc3c2)cc(OC)c1OC [PNR-5-10, (Z)-3-(quinolin-3-yl)-2-(3,4,5-trimethoxyphenyl)acrylonitrile]	0.429

Same assay, conditions: Homo sapiens, MCF7, read-out: LC50

SMILES	CC50 [µM]
COc1cc(/C(C#N)=C/c2cnc3ccccc3c2)cc(OC)c1OC [PNR-5-10, (Z)-3-(quinolin-3-yl)-2-(3,4,5-trimethoxyphenyl)acrylonitrile]	> 100

Tested on: HS 578T
Assay: as above
Settings: Homo sapiens

SMILES	GI50 [µM]
COc1cc(/C(C#N)=C/c2cnc3ccccc3c2)cc(OC)c1OC [PNR-5-10, (Z)-3-(quinolin-3-yl)-2-(3,4,5-trimethoxyphenyl)acrylonitrile]	1.31

Same assay, conditions: Homo sapiens, read-out: LC50

SMILES	CC50 [µM]
COc1cc(/C(C#N)=C/c2cnc3ccccc3c2)cc(OC)c1OC [PNR-5-10, (Z)-3-(quinolin-3-yl)-2-(3,4,5-trimethoxyphenyl)acrylonitrile]	> 100

Tested on: OVCAR-8
Assay: NCI growth inhibition and cytotoxicity screen, Ovarian Cancer panel
Settings: Homo sapiens, OVCAR-8

SMILES	GI50 [µM]
COc1cc(/C(C#N)=C/c2cnc3ccccc3c2)cc(OC)c1OC [PNR-5-10, (Z)-3-(quinolin-3-yl)-2-(3,4,5-trimethoxyphenyl)acrylonitrile]	3.41

Same assay, conditions: Homo sapiens, OVCAR-8, read-out: LC50

SMILES	CC50 [µM]
COc1cc(/C(C#N)=C/c2cnc3ccccc3c2)cc(OC)c1OC [PNR-5-10, (Z)-3-(quinolin-3-yl)-2-(3,4,5-trimethoxyphenyl)acrylonitrile]	> 100

Tested on: NCI/ADR-RES
Assay: as above
Settings: Homo sapiens

SMILES	GI50 [µM]
COc1cc(/C(C#N)=C/c2cnc3ccccc3c2)cc(OC)c1OC [PNR-5-10, (Z)-3-(quinolin-3-yl)-2-(3,4,5-trimethoxyphenyl)acrylonitrile]	0.343

Same assay, conditions: Homo sapiens, read-out: LC50

SMILES	CC50 [µM]
COc1cc(/C(C#N)=C/c2cnc3ccccc3c2)cc(OC)c1OC [PNR-5-10, (Z)-3-(quinolin-3-yl)-2-(3,4,5-trimethoxyphenyl)acrylonitrile]	> 100

Tested on: PC-3
Assay: NCI growth inhibition and cytotoxicity screen, Prostate Cancer panel
Settings: Homo sapiens, PC-3

SMILES	GI50 [µM]
COc1cc(/C(C#N)=C/c2cnc3ccccc3c2)cc(OC)c1OC [PNR-5-10, (Z)-3-(quinolin-3-yl)-2-(3,4,5-trimethoxyphenyl)acrylonitrile]	1.08

Same assay, conditions: Homo sapiens, PC-3, read-out: LC50

SMILES	CC50 [µM]
COc1cc(/C(C#N)=C/c2cnc3ccccc3c2)cc(OC)c1OC [PNR-5-10, (Z)-3-(quinolin-3-yl)-2-(3,4,5-trimethoxyphenyl)acrylonitrile]	> 100
